Source: patent US8283353B2, “Fused ring compound and use thereof” (Takeda Pharmaceutical Company Limited, priority 2009, dated 2012)

Experiments:
[1] = target: T1, human AT1 receptor (Homo sapiens, UniProt P30556); experiment: AT1 receptor antagonistic activity: [125I]-angiotensin II binding assay on human AT1 receptor-expressing CHO-K1 cellular membrane fraction; conditions: 22.5 pM [125I]-angiotensin II, 1 hr room temperature
T1 construct: expressed in transfected cells; membrane fraction
T1 sequence (P30556 1-359): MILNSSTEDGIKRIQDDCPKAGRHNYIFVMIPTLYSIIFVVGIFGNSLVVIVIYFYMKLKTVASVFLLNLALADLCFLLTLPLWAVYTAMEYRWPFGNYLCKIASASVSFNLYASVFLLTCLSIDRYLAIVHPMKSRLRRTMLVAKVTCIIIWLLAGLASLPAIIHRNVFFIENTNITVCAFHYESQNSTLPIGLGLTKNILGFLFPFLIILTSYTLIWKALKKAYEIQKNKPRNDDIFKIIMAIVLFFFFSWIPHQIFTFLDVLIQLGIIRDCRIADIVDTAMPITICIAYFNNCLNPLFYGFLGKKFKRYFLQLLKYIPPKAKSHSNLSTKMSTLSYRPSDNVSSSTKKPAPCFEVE
Summary of the method: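 Competition binding used radiolabelled angiotensin II on stably transfected CHO-K1 membrane fractions in Tris pH 7.4/MgCl2 buffer, optionally containing 0.3 mg/mL fatty acid-free BSA, 1 hr at room temperature. Filtration onto GF/C separated bound tracer, and nonspecific binding was measured with candesartan.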

[2] = target: T2, human PPARγ (Homo sapiens, UniProt P37231); experiment: PPARγ agonistic activity: luciferase reporter assay in PPARγ:RXRα:4ERPP/CHO-K1 cells; assay type: cell-based; conditions: CHO-K1, test compound 10^−6 M; luciferase activity of control compound X (1 μM) = 100%, non-administration group = 0%
T2 construct: expressed in transfected cells
T2 sequence (P37231 1-477 isoform P37231-2): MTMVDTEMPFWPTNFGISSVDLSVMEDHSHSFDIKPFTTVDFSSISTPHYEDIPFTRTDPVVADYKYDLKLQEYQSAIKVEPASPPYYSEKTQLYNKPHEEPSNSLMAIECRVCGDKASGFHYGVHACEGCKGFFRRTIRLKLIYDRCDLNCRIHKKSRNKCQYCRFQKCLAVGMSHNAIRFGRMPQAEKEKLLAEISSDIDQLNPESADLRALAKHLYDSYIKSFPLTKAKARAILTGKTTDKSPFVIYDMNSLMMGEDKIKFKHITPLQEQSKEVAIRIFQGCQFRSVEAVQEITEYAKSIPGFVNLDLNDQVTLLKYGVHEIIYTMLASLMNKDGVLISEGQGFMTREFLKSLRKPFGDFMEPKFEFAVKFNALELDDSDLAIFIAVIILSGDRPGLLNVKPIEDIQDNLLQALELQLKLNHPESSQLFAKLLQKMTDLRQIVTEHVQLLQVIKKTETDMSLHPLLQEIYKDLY
T2 sequence (P19793 1-462 partner): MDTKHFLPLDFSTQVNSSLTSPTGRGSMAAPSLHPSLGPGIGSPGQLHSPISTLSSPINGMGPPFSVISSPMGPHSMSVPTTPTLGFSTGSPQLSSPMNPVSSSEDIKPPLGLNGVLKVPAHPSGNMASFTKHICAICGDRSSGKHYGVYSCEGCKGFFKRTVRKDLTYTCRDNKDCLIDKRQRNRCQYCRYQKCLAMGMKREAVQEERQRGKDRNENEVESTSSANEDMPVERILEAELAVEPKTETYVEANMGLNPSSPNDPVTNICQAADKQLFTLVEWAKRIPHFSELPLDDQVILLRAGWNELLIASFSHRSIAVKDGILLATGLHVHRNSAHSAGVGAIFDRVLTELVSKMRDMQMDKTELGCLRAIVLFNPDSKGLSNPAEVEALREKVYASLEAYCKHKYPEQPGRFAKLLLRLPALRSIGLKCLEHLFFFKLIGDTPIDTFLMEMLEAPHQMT
Summary of the method: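 Activity is expressed relative to untreated cells (0%) and 1 μM reference compound X (100%), from luciferase luminescence. Reporter line: PPARγ:RXRα:4ERPP/CHO-K1, exposed to compound for one day at 37 °C in F12 medium containing 0.1% fatty-acid-free BSA.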

SMILES | IC50 [1] [nM] | activation at 1 µM [2] [%]
CCCc1c(Cc2ccc(-c3ccccc3-c3noc(=O)[nH]3)cc2)c(=O)n(CC(C)(C)COC)c2nc(C)nn12 [Example 73, 4-(3-methoxy-2,2-dimethylpropyl)-2-methyl-6-{[2′-(5-oxo-4,5-dihydro-1,2,4-oxadiazol-3-yl)biphenyl-4-yl]methyl}-7-propyl[1,2,4]triazolo[1,5-a]pyrimidin-5(4H)-one] | 1.5 | 20
CCCc1c(Cc2ccc(-c3ccccc3-c3noc(=O)[nH]3)cc2F)c(=O)n(C2CCOCC2)c2nc(C)nn12 [Example 108, 6-{[3-fluoro-2′-(5-oxo-4,5-dihydro-1,2,4-oxadiazol-3-yl)biphenyl-4-yl]methyl}-2-methyl-7-propyl-4-(tetrahydro-2H-pyran-4-yl)[1,2,4]triazolo[1,5-a]pyrimidin-5(4H)-one] | 1.5 | 16
CCCc1c(Cc2ccc(-c3ccccc3-c3noc(=O)[nH]3)cc2)c(=O)n(C(C)CC)c2nc(C)nn12 (stereo not shown) [Example 68, 2-methyl-4-(1-methylpropyl)-6-{[2′-(5-oxo-4,5-dihydro-1,2,4-oxadiazol-3-yl)biphenyl-4-yl]methyl}-7-propyl[1,2,4]triazolo[1,5-a]pyrimidin-5(4H)-one] | 1.7 | 17
CCCc1c(Cc2ccc(-c3ccccc3-c3noc(=O)[nH]3)cc2)c(=O)n(Cc2ccc(F)cc2)c2ncnn12 [Example 4, 4-(4-fluorobenzyl)-6-{[2′-(5-oxo-4,5-dihydro-1,2,4-oxadiazol-3-yl)biphenyl-4-yl]methyl}-7-propyl[1,2,4]triazolo[1,5-a]pyrimidin-5(4H)-one] | 2.6 | 39
CCCc1c(Cc2ccc(-c3ccccc3-c3noc(=O)[nH]3)cc2)c(=O)n(C2CCC3(CC2)OCCO3)c2nc(C)nn12 [Example 292, 4-(1,4-dioxaspiro[4.5]dec-8-yl)-2-methyl-6-{[2′-(5-oxo-4,5-dihydro-1,2,4-oxadiazol-3-yl)biphenyl-4-yl]methyl}-7-propyl[1,2,4]triazolo[1,5-a]pyrimidin-5(4H)-one] | 1.9 | 46
CCCc1c(Cc2ccc(-c3ccccc3-c3nnn[nH]3)cc2)c(=O)n(C2CCC3(CC2)OC(C)(C)C(C)(C)O3)c2ncnn12 [Example 181, 7-propyl-4-(2,2,3,3-tetramethyl-1,4-dioxaspiro[4.5]dec-8-yl)-6-{[2′-(1H-tetrazol-5-yl)biphenyl-4-yl]methyl}[1,2,4]triazolo[1,5-a]pyrimidin-5(4H)-one] | 3.2 | 18
CCCc1c(Cc2ccc(-c3ccccc3-c3noc(=O)[nH]3)cc2F)c(=O)n([C@H]2CC[C@H](OCC(C)(C)O)CC2)c2ccnn12 [Example 435, 6-{[3-fluoro-2′-(5-oxo-4,5-dihydro-1,2,4-oxadiazol-3-yl)biphenyl-4-yl]methyl}-4-[trans-4-(2-hydroxy-2-methylpropoxy)cyclohexyl]-7-propylpyrazolo[1,5-a]pyrimidin-5(4H)-one] | 1.7 | 30

More lines, now with the values ahead:

IC50 [1] [nM] | activation at 1 µM [2] [%] | SMILES
1.9 | 24 | CCCc1c(Cc2ccc(-c3ccccc3-c3noc(=O)[nH]3)cc2)c(=O)n([C@H]2CC[C@H](OCC(C)(O)CF)CC2)c2ncnn12 (stereo partly drawn) [Example 337, 4-[trans-4-(3-fluoro-2-hydroxy-2-methylpropoxy)cyclohexyl]-6-{[2′-(5-oxo-4,5-dihydro-1,2,4-oxadiazol-3-yl)biphenyl-4-yl]methyl}-7-propyl[1,2,4]triazolo[1,5-a]pyrimidin-5(4H)-one]
2 | 28 | CCCc1c(Cc2ccc(-c3ccccc3-c3noc(=O)[nH]3)cc2)c(=O)n(C2CCC(=NOC(C)C)CC2)c2ncnn12 (stereo not shown) [Example 193, 4-{4-[(1-methylethoxy)imino]cyclohexyl}-6-{[2′-(5-oxo-4,5-dihydro-1,2,4-oxadiazol-3-yl)biphenyl-4-yl]methyl}-7-propyl[1,2,4]triazolo[1,5-a]pyrimidin-5(4H)-one]
2.8 | 53 | CCCc1c(Cc2ccc(-c3ccccc3-c3noc(=O)[nH]3)cc2)c(=O)n([C@H]2CC[C@](O)(COC)CC2)c2ncnn12 [Example 297, 4-[cis-4-hydroxy-4-(methoxymethyl)cyclohexyl]-6-{[2′-(5-oxo-4,5-dihydro-1,2,4-oxadiazol-3-yl)biphenyl-4-yl]methyl}-7-propyl[1,2,4]triazolo[1,5-a]pyrimidin-5(4H)-one]
1.3 | 22 | CCCc1c(Cc2ccc(-c3ccccc3-c3noc(=O)[nH]3)cc2F)c(=O)n([C@H]2CC[C@@H](O)CC2)c2ncnn12 [Example 166, 6-{[3-fluoro-2′-(5-oxo-4,5-dihydro-1,2,4-oxadiazol-3-yl)biphenyl-4-yl]methyl}-4-(cis-4-hydroxycyclohexyl)-7-propyl[1,2,4]triazolo[1,5-a]pyrimidin-5(4H)-one]
1.6 | 30 | CCCc1c(Cc2ccc(-c3ccccc3-c3noc(=O)[nH]3)cc2F)c(=O)n([C@H]2CC[C@H](OCC(C)O)CC2)c2ccnn12 (relative stereo) [Example 437, 6-{[3-fluoro-2′-(5-oxo-4,5-dihydro-1,2,4-oxadiazol-3-yl)biphenyl-4-yl]methyl}-4-[trans-4-(2-hydroxypropoxy)cyclohexyl]-7-propylpyrazolo[1,5-a]pyrimidin-5(4H)-one]
1.7 | 28 | CCCc1c(Cc2ccc(-c3ccccc3-c3noc(=O)[nH]3)cc2)c(=O)n([C@H]2CC[C@H](c3nnc(C)o3)CC2)c2ncnn12 [Example 173, 4-[trans-4-(5-methyl-1,3,4-oxadiazol-2-yl)cyclohexyl]-6-{[2′-(5-oxo-4,5-dihydro-1,2,4-oxadiazol-3-yl)biphenyl-4-yl]methyl}-7-propyl[1,2,4]triazolo[1,5-a]pyrimidin-5(4H)-one]
2.3 | 22 | CCCc1c(Cc2ccc(-c3ccccc3-c3nnn[nH]3)cc2)c(=O)n([C@H]2CC[C@H](c3cnco3)CC2)c2ncnn12 [Example 185, 4-[trans-4-(1,3-oxazol-5-yl)cyclohexyl]-7-propyl-6-{[2′-(1H-tetrazol-5-yl)biphenyl-4-yl]methyl}[1,2,4]triazolo[1,5-a]pyrimidin-5(4H)-one]
2.8 | 28 | CCCc1c(Cc2ccc(-c3ccccc3-c3noc(=O)[nH]3)cc2)c(=O)n([C@H]2CC[C@@H](Oc3ccc(OC)cc3)CC2)c2ncnn12 [Example 272, 4-[cis-4-(4-methoxyphenoxy)cyclohexyl]-6-{[2′-(5-oxo-4,5-dihydro-1,2,4-oxadiazol-3-yl)biphenyl-4-yl]methyl}-7-propyl[1,2,4]triazolo[1,5-a]pyrimidin-5(4H)-one]
1.6 | 20 | CCCc1c(Cc2ccc(-c3ccccc3-c3noc(=O)[nH]3)cc2)c(=O)n(C2CCC3(CC2)OCC(C)(C)CO3)c2ncnn12 [Example 170, 4-(3,3-dimethyl-1,5-dioxaspiro[5.5]undec-9-yl)-6-{[2′-(5-oxo-4,5-dihydro-1,2,4-oxadiazol-3-yl)biphenyl-4-yl]methyl}-7-propyl[1,2,4]triazolo[1,5-a]pyrimidin-5(4H)-one]
1.8 | 19 | CCCc1c(Cc2ccc(-c3ccccc3-c3noc(=O)[nH]3)cc2)c(=O)n([C@H]2CC[C@H](OC(C)C(C)O)CC2)c2ncnn12 (stereo partly drawn) [Example 299, 4-[trans-4-(2-hydroxy-1-methylpropoxy)cyclohexyl]-6-{[2′-(5-oxo-4,5-dihydro-1,2,4-oxadiazol-3-yl)biphenyl-4-yl]methyl}-7-propyl[1,2,4]triazolo[1,5-a]pyrimidin-5(4H)-one]
